From US20050228007A1, “Isoquinoline derivatives and methods of use thereof” (priority 2004, published 2005)
Where a name gives a salt, the structure may show the parent alone. Read-outs that look alike come from different tables or passages of the source. Values belong to the compound of their own block, whether it stands above or below them.

Columns and labels:
[1] = tested on: ischemic and reperfused gut; assay: Mouse model of ischemic and reperfused gut
Method: In order to substantiate the efficacy of the Isoquinoline Derivatives in ischemia-reperfusion conditions, the effect of an illustrative Isoquinoline Derivative in a mouse model of ischemic and reperfused gut was tested. […] Following the end of the reperfusion, gut permeability was measured with the FD4 method in evened gut sacks (Liaudet et al., Shock 2000, 14(2): 134-41).

Balb/c mice = assay: LPS (endotoxin) induced mortality; type: in vivo; conditions: 3 mg/kg/day; 100 mg/kg LPS i.p.; over 24 h; untreated 50%
CLP induced shock = assay: Cecal ligation and puncture (CLP) induced shock mortality; type: in vivo; conditions: 3 mg/kg/day; over 24 h; untreated 100% death
[2] = tested on: middle cerebral artery occlusion/reperfusion; assay: Rat model of middle cerebral artery occlusion/reperfusion; type: in vivo; conditions: 3 mg/kg/day in 3 divided i.p. doses; 2 h occlusion, 24 h reperfusion; vs vehicle-treated controls
Method: Occlusion lasted for 2 hours, followed by reperfusion for 24 hours. Infarct size was quantified with tetrazolium staining. […] There was an approximately 80% reduction in the degree of cortical necrosis and neuronal death in the animals administered with 8l (mesylate salt), when compared to vehicle-treated controls.

thymocytes = conditions: peroxynitrite induced, control 98%
Excerpt: In addition in vitro studies in isolated thymocytes, cells were exposed to peroxynitrite or hydrogen peroxide (toxic oxidant species) to induce cytotoxicity.

[3] = tested on: streptozotocin (STZ) induced hyperglycemia; assay: Single high-dose streptozotocin model of diabetes; type: in vivo, mice; conditions: 3 mg/kg i.p.; STZ 160 mg/kg; blood sugar 3 days later; STZ + vehicle 320 ± 13, basal 153 ± 21; 8l as mesylate salt
Method: PARS inhibitors and PARS deficiency are known to reduce the development of diabetes and the incidence of diabetic complications (Mabley et al., Br J. Pharmacol. 2001, 133(6):909-9; and Soriano et al., Nat Med. 2001, 7(1):108-13). […] Briefly, 160 mg/kg streptozotocin was injected to mice treated with vehicle or with illustrative Isoquinoline Derivatives intraperitoneally (3 mg/kg) and 3 days later blood sugar levels were determined using a blood glucose meter.

PARS = biological target: T1, PARS (Mus musculus, UniProt P11103); assay: PARS activation in peroxynitrite-treated cultured macrophages (whole-cell 3H-NAD+ assay); type: cell-based; conditions: cultured murine macrophages
T1 construct: endogenous in cells; host or cells: RAW mouse macrophages
Method: Raw mouse macrophages were cultured in DMEM medium with high glucose and supplemented with 10% fetal bovine serum. Cells were used at 80% confluence in 12-well plates. Cells were pretreated with various concentrations (100 nM -1 µM) of an Isoquinoline Derivative for 10 min. Peroxynitrite, a prototypical oxidant which induces DNA single strand breakage, was used to induce PARS activation. Peroxynitrite was diluted in phosphate buffered saline (PBS) (pH 11.0) and added to the cells in a bolus of 50 μl. Cells were then incubated for 20 min. […] After the 20 min incubation, the cells were spun, the medium was aspirated and the cells were resuspended in 0.5 ml assay buffer (56 mM HEPES pH 7.5, 28 mM KCl, 28 mM NaCl, 2 mM MgCl2, 0.01% w/v digitonin and 0.125 μM NAD^+ and 0.5 μCi/ml ^3H-NAD^+). Following an incubation in assay buffer, (10 min at 37° C.), PARS activity was measured as follows: 200 μl ice cold 50% w/v TCA was added and the samples were incubated for 4 hours at 4° C. Samples were then spun (10 min @ 10,000 g) and pellets washed twice with ice cold 5% w/v TCA and solubilized overnight in 250 μl 2% w/v SDS/0.1 N NaOH at 37° C. The contents of the tubes were added to 6.5 ml ScintiSafe Plus scintillation liquid (Fisher Scientific) and radioactivity was determined using a liquid scintillation counter (Wallac, Gaithersburg, Md.).

TNF-alpha = assay: LPS induced TNF production in mice; type: in vivo; design: unit not given here; conditions: LPS 10 mg/kg i.p., plasma at 90 minutes, vehicle 6994.0 ± 904.4, 8l as mesylate salt

T1 sequence (P11103 whole entry): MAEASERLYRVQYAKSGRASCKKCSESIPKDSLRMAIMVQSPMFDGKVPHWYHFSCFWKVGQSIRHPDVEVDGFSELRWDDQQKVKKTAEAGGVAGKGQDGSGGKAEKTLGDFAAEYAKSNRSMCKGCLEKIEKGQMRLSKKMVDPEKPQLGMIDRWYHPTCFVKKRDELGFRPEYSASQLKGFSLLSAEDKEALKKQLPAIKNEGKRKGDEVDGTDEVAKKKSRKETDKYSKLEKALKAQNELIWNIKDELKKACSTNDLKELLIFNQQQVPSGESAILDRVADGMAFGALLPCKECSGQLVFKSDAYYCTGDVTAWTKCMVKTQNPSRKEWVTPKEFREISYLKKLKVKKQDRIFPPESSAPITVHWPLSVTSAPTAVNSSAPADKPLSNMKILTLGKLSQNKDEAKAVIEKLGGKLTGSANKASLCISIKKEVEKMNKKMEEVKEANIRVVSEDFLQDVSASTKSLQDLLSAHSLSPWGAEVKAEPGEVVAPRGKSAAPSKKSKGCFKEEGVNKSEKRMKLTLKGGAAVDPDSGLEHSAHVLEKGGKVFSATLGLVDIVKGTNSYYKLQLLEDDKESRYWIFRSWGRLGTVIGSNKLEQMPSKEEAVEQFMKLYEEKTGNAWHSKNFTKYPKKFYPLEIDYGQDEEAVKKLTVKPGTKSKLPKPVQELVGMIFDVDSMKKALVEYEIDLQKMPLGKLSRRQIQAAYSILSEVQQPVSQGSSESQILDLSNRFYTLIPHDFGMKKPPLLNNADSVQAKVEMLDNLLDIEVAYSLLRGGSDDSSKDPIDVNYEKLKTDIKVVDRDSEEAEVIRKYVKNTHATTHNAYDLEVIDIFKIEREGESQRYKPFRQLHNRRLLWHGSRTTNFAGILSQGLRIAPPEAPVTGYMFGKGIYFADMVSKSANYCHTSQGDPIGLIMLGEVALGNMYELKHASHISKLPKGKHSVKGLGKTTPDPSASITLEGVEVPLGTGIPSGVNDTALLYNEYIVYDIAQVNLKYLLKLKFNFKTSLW

Structure (SMILES): O=c1[nH]c2c(c3ccccc13)Cc1cc(S(=O)(=O)NCCCN3CCOCC3)ccc1-2 [Compound 8l (mesylate salt), 9-[N-(3-[morpholino-4-yl]propyl)-aminosulphonyl]-5,6-dihydro-5-oxo-11H-indeno-[1,2c]isoquinoline]
reduction of the increase in the permeability of the gut ([1]; 3 mg/kg i.v. 10 min prior to reperfusion, 45 min occlusion, 1 h reperfusion, FD4 method): approximately 73%
mortality ([1]; gut ischemia-reperfusion, over 12 hours, untreated 80%): 15%
endotoxin-induced mortality (Balb/c mice): 10%
mortality (death) in CLP induced shock (CLP induced shock): 60%
reduction in the degree of cortical necrosis and neuronal death [2]: approximately 80%

Structure (SMILES): O=c1[nH]c2c(c3ccccc13)Cc1cc(S(=O)(=O)NCCCN3CCOCC3)ccc1-2 [Compound 8l, 9-[N-(3-[morpholino-4-yl]propyl)-aminosulphonyl]-5,6-dihydro-5-oxo-11H-indeno-[1,2c]isoquinoline]
Cytotoxicity (thymocytes; 30 nM 8l (mesylate salt per title)): 74%
Cytotoxicity (thymocytes; 100 nM 8l (mesylate salt per title)): 39%
Cytotoxicity (thymocytes; 300 nM 8l (mesylate salt per title)): 2%
Cytotoxicity (thymocytes; 1 μM 8l (mesylate salt per title)): 0%
Cytotoxicity (thymocytes; 3 μM 8l (mesylate salt per title)): 0%
Glucose [3]: 244 ± 21 mg/dL

% PARS inhibition at 100 nM (PARS; 100 nM): 34%
% PARS inhibition at 300 nM (PARS; 300 nM): 76%
Structure (SMILES): O=c1[nH]c2c(c3ccccc13)Cc1cc(S(=O)(=O)NCCN3CCOCC3)ccc1-2 [Compound 8j, 9-[N-(2-[morpholino-4-yl]ethyl)-aminosulphonyl]-5,6-dihydro-5-oxo-11H-indeno[1,2-c]isoquinoline]
TNF (TNF-alpha; 0.1 mg/kg i.p. pretreatment): 3831.6 ± 385.2
TNF (TNF-alpha; 1.0 mg/kg i.p. pretreatment): 5038.8 ± 377.1
Glucose [3]: 253 ± 24 mg/dL

inhibition at 0.1 µM (PARS; 100 nM): 27%
inhibition at 0.3 µM (PARS; 300 nM): 45%
Structure (SMILES): CCN(CC)CCN(CCN(CC)CC)S(=O)(=O)c1ccc2c(c1)=Cc1c3c(c(=O)[nH]c1=2)=CC=CC3 [Compound 8p, 9-[N,N-di-(2-[N,N-diethylamino]ethyl)-aminosulphonyl]-5,6-dihydro-5-oxo-1H-indeno-[1,2-c]isoquinoline]
TNF (TNF-alpha; 0.1 mg/kg i.p. pretreatment): 4470.0 ± 184.4
TNF (TNF-alpha; 1.0 mg/kg i.p. pretreatment): 5090.8 ± 203.7
Glucose [3]: 264 ± 24 mg/dL
